Laboratory results as given in patent US9617267B2, “Compounds and methods for kinase modulation, and indications therefor” (Plexxikon Inc., priority 2009, dated 2017).

Assay: Relative solubility by turbidity threshold concentration in aqueous buffers (pH 1.5, 4.5, 6.8, 7.4)
Format: physicochemical
Conditions: for turbidity threshold (L, M, H) 1.4: pH 1.4 [sic] (method: SGF pH 1.5); for turbidity threshold (L, M, H) 4.5: pH 4.5 (SIF); for turbidity threshold (L, M, H) 6.8: pH 6.8 (SIF); for turbidity threshold (L, M, H) 7.4: pH 7.4 (HEPES)
Description: As an indication of relative solubility, the turbidity of compounds in aqueous solutions is assessed. To assess possible compound properties in different physiological compartments, such as stomach, intestine, and blood, a series of aqueous buffers with varying pH is used. Thus each compound is diluted into four different physiologically relevant buffers and solution turbidity is measured by spectrophotometry.
Compounds are dissolved at a concentration of 25 mM in dimethyl sulfoxide, then serially diluted 1:1 into a 96 well plate, diluting 10 times in pure dimethyl sulfoxide, with the final well of each row a dimethyl sulfoxide blank. In an assay plate, 99 μL of appropriate buffer is added to each well, and 1 μL of each sample dilution is added to the buffer, achieving a range of final total concentrations in aqueous solutions having different pH. The buffers used are Simulated Gastric Fluid (SGF-pH 1.5) 0.5M NaCl, pH 1.5; Simulated Intestinal fluid (SIF-pH 4.5 and pH 6.8) 0.05M NaH2PO4, pH 4.5 and 6.8; and Hepes Buffer (HEPES-pH 7.4) 10 mM HEPES, 150 mM NaCl, pH 7.4. Control compounds pyrene, estriol and propranolol HCl are also assessed. Plates are spun and then mixed for 1 minute, and the absorbance is read using a Tecan Safire II to read wavelengths in the visible range (490, 535, and 650 nm) at four locations per well, reflecting the degree of turbidity present. The average optical density for each wavelength in each well is graphed vs. compound concentration, and the concentration at which the curve crosses a threshold O.D. of 0.01 for each wavelength is reported as the endpoint turbidity assay result. The average of the three wavelengths is used to compare turbidity of compounds. Compounds are considered to have low solubility if the threshold concentration is <31.3 μM, moderate solubility if the threshold concentration is 31.3 μM to 250 μM, and high solubility if the threshold concentration is >250 μm.
The following table indicates the relative solubility (L=low, M=moderate, H=high) based on turbidity threshold concentration at each pH for exemplary compounds according to the invention as indicated: […]

Compound	turbidity threshold (L, M, H) 1.4	turbidity threshold (L, M, H) 4.5	turbidity threshold (L, M, H) 6.8	turbidity threshold (L, M, H) 7.4
CCCS(=O)(=O)Nc1ccc(F)c(C(=O)c2c[nH]c3ncnc(Nc4cccc(OC)c4)c23)c1F [P-1085, Propane-1-sulfonic acid {2,4-difluoro-3-[4-(3-methoxy-phenylamino)-7H-pyrrolo[2,3-d]pyrimidine-5-carbonyl]-phenyl}-amide]	L (low solubility if the threshold concentration is <31.3 μM)	L (low solubility if the threshold concentration is <31.3 μM)	L (low solubility if the threshold concentration is <31.3 μM)	L (low solubility if the threshold concentration is <31.3 μM)
CCCS(=O)(=O)Nc1ccc(F)c(C(=O)c2c[nH]c3ncnc(Nc4cnn(CC)c4)c23)c1F [P-1099, Propane-1-sulfonic acid {3-[4-(1-ethyl-1H-pyrazol-4-ylamino)-7H-pyrrolo[2,3-d]pyrimidine-5-carbonyl]-2,4-difluoro-phenyl}-amide]	M (moderate solubility if the threshold concentration is 31.3 μM to 250 μM)	L (low solubility if the threshold concentration is <31.3 μM)	M (moderate solubility if the threshold concentration is 31.3 μM to 250 μM)	M (moderate solubility if the threshold concentration is 31.3 μM to 250 μM)
CCCS(=O)(=O)Nc1ccc(F)c(C(=O)c2c[nH]c3ncnc(Nc4cccc(Cl)c4)c23)c1F [P-1084, Propane-1-sulfonic acid {3-[4-(3-chloro-phenylamino)-7H-pyrrolo[2,3-d]pyrimidine-5-carbonyl]-2,4-difluoro-phenyl}-amide]	M (moderate solubility if the threshold concentration is 31.3 μM to 250 μM)	M (moderate solubility if the threshold concentration is 31.3 μM to 250 μM)	M (moderate solubility if the threshold concentration is 31.3 μM to 250 μM)	M (moderate solubility if the threshold concentration is 31.3 μM to 250 μM)
CCCS(=O)(=O)Nc1ccc(F)c(C(=O)c2c[nH]c3ncnc(Nc4ccncc4)c23)c1F [P-1076, Propane-1-sulfonic acid {2,4-difluoro-3-[4-(pyridin-4-ylamino)-7H-pyrrolo[2,3-d]pyrimidine-5-carbonyl]-phenyl}-amide]	H (high solubility if the threshold concentration is >250 μm)	H (high solubility if the threshold concentration is >250 μm)	H (high solubility if the threshold concentration is >250 μm)	H (high solubility if the threshold concentration is >250 μm)
CCCS(=O)(=O)Nc1ccc(F)c(C(=O)c2c[nH]c3ncnc(NCC(C)C)c23)c1F [P-1088, Propane-1-sulfonic acid [2,4-difluoro-3-(4-isobutylamino-7H-pyrrolo[2,3-d]pyrimidine-5-carbonyl)-phenyl]-amide]	M (moderate solubility if the threshold concentration is 31.3 μM to 250 μM)	L (low solubility if the threshold concentration is <31.3 μM)	L (low solubility if the threshold concentration is <31.3 μM)	L (low solubility if the threshold concentration is <31.3 μM)
CCCS(=O)(=O)Nc1ccc(F)c(C(=O)c2c[nH]c3ncnc(CC(C)C)c23)c1F [P-1014, Propane-1-sulfonic acid [2,4-difluoro-3-(4-isobutyl-7H-pyrrolo[2,3-d]pyrimidine-5-carbonyl)-phenyl]-amide]	M (moderate solubility if the threshold concentration is 31.3 μM to 250 μM)		M (moderate solubility if the threshold concentration is 31.3 μM to 250 μM)	M (moderate solubility if the threshold concentration is 31.3 μM to 250 μM)
CCCS(=O)(=O)Nc1ccc(F)c(C(=O)c2c[nH]c3ncnc(Nc4ccc(Cl)cc4)c23)c1F [P-1087, Propane-1-sulfonic acid {3-[4-(4-chloro-phenylamino)-7H-pyrrolo[2,3-d]pyrimidine-5-carbonyl]-2,4-difluoro-phenyl}-amide]	M (moderate solubility if the threshold concentration is 31.3 μM to 250 μM)	L (low solubility if the threshold concentration is <31.3 μM)	M (moderate solubility if the threshold concentration is 31.3 μM to 250 μM)	M (moderate solubility if the threshold concentration is 31.3 μM to 250 μM)
CCCS(=O)(=O)Nc1ccc(F)c(C(=O)c2c[nH]c3ncnc(Nc4cccc(F)c4)c23)c1F [P-1094, Propane-1-sulfonic acid {2,4-difluoro-3-[4-(3-fluoro-phenylamino)-7H-pyrrolo[2,3-d]pyrimidine-5-carbonyl]-phenyl}-amide]	L (low solubility if the threshold concentration is <31.3 μM)	L (low solubility if the threshold concentration is <31.3 μM)	M (moderate solubility if the threshold concentration is 31.3 μM to 250 μM)	L (low solubility if the threshold concentration is <31.3 μM)
CCCS(=O)(=O)Nc1ccc(F)c(C(=O)c2c[nH]c3ncnc(NC4CCN(CC)CC4)c23)c1F [P-1095, Propane-1-sulfonic acid {3-[4-(1-ethyl-piperidin-4-ylamino)-7H-pyrrolo[2,3-d]pyrimidine-5-carbonyl]-2,4-difluoro-phenyl}-amide]	H (high solubility if the threshold concentration is >250 μm)	H (high solubility if the threshold concentration is >250 μm)	H (high solubility if the threshold concentration is >250 μm)	H (high solubility if the threshold concentration is >250 μm)
Cc1nn(C)cc1Nc1ncnc2[nH]cc(C(=O)c3c(F)ccc(NS(=O)(=O)c4cc(F)ccc4F)c3F)c12 [P-1143, N-{3-[4-(1,3-Dimethyl-1H-pyrazol-4-ylamino)-7H-pyrrolo[2,3-d]pyrimidine-5-carbonyl]-2,4-difluoro-phenyl}-2,5-difluoro-benzenesulfonamide]	L (low solubility if the threshold concentration is <31.3 μM)	L (low solubility if the threshold concentration is <31.3 μM)	L (low solubility if the threshold concentration is <31.3 μM)	L (low solubility if the threshold concentration is <31.3 μM)
CCCS(=O)(=O)Nc1ccc(F)c(C(=O)c2c[nH]c3ncnc(NC(C)C)c23)c1F [P-1051, Propane-1-sulfonic acid [2,4-difluoro-3-(4-isopropylamino-7H-pyrrolo[2,3-d]pyrimidine-5-carbonyl)-phenyl]-amide]	H (high solubility if the threshold concentration is >250 μm)	M (moderate solubility if the threshold concentration is 31.3 μM to 250 μM)	M (moderate solubility if the threshold concentration is 31.3 μM to 250 μM)	M (moderate solubility if the threshold concentration is 31.3 μM to 250 μM)
CCCS(=O)(=O)Nc1ccc(F)c(C(=O)c2c[nH]c3ncnc(NC4CC4)c23)c1F [P-1041, Propane-1-sulfonic acid [3-(4-cyclopropylamino-7H-pyrrolo[2,3-d]pyrimidine-5-carbonyl)-2,4-difluoro-phenyl]-amide]	H (high solubility if the threshold concentration is >250 μm)	M (moderate solubility if the threshold concentration is 31.3 μM to 250 μM)	M (moderate solubility if the threshold concentration is 31.3 μM to 250 μM)	M (moderate solubility if the threshold concentration is 31.3 μM to 250 μM)
